The text below walks through data of patent US20250188069A1, “COMPOUNDS AND METHODS FOR DEGRADING CASEIN KINASE 1 ALPHA” (PIN THERAPEUTICS, INC., priority 2022, published 2025).

Structures can show the parent of a compound that is named as a salt.

The first experiment has as its system MV-4-11 cells. As to the kind of experiment: AML cell viability assay (RealTime-Glo). The format is cell-based. Conditions: Homo sapiens, MV4-11, 44 h, read-out: Cell viability classification.
For the compound `CCCCCN(CCCCNC(=O)CCC)c1cccc2c1CN(C1CCC(=O)NC1=O)C2=O` (centres unmarked) [Compound 148, N-(4-((2-(2,6-dioxopiperidin-3-yl)-1-oxoisoindolin-4-yl)(pentyl)amino)butyl)butyramide], the IC50 lay in the range of 100 to 1000 nM.

In the case of `CCCCCN(CCCCNC(=O)CC(C)C)c1cccc2c1CN(C1CCC(=O)NC1=O)C2=O` (centres unmarked) [Compound 149, N-(4-((2-(2,6-dioxopiperidin-3-yl)-1-oxoisoindolin-4-yl)(pentyl)amino)butyl)-3-methylbutanamide], the IC50 was greater than 1000 nM.

Still in this experiment, the particulars now being: Homo sapiens, MV4-11; IC50 class; MV-4-11 cells, RealTime-Glo after 44 hrs of treatment (TABLE 1); read-out: Cell viability classification.
As to `CCCN(CCN)c1cccc2c1CN(C1CCC(=O)NC1=O)C2=O` (centres unmarked) [Compound 49, 3-(4-((2-aminoethyl)(propyl)amino)-1-oxoisoindolin-2-yl)piperidine-2,6-dione], the IC50 was greater than 1000 nM.

Consider `CCCN(CCCN)c1cccc2c1CN(C1CCC(=O)NC1=O)C2=O` (centres unmarked) [Compound 53, 3-(4-((3-aminopropyl)(propyl)amino)-1-oxoisoindolin-2-yl)piperidine-2,6-dione], for which the IC50 is 100 to 1000 nM.

Turning to `N[C@H]1CC[C@H](N(CCc2ccccc2)c2cccc3c2CN(C2CCC(=O)NC2=O)C3=O)CC1` (some centres unmarked) [Compound 247, 3-(4-(((1r,4r)-4-aminocyclohexyl)(phenethyl)amino)-1-oxoisoindolin-2-yl)piperidine-2,6-dione, HCl], the IC50 was 100 to 1000 nM.

Turning to `CCCCCN(c1cccc2c1CN(C1CCC(=O)NC1=O)C2=O)[C@H]1CCC[C@H](N)C1` (stereo partly drawn) [Compound 327, 3-(4-(((1S,3S)-3-aminocyclohexyl)(pentyl)amino)-1-oxoisoindolin-2-yl)piperidine-2,6-dione], the IC50 is less than 100 nM.

As to `CCCCCN(c1cccc2c1CN(C1CCC(=O)NC1=O)C2=O)[C@H]1CCC[C@@H](N)C1` (stereo partly drawn) [Compound 328, 3-(4-(((1S,3R)-3-aminocyclohexyl)(pentyl)amino)-1-oxoisoindolin-2-yl)piperidine-2,6-dione], the IC50 was less than 100 nM.

On to `CC(C)(C)CCN(c1cccc2c1CN(C1CCC(=O)NC1=O)C2=O)[C@H]1CC[C@@H](CN)CC1` (some centres unmarked) [Compound 332, 3-(4-(((1s,4s)-4-(aminomethyl)cyclohexyl)(3,3-dimethylbutyl)amino)-1-oxoisoindolin-2-yl)piperidine-2,6-dione], for which the IC50 is less than 100 nM.

With `C[C@H]1CC[C@@H](N(c2cccc3c2CN(C2CCC(=O)NC2=O)C3=O)[C@H]2CC[C@@H](CN)CC2)CC1` (stereo partly drawn) [Compound 334, 3-(4-(((1s,4S)-4-(aminomethyl)cyclohexyl)((1s,4S)-4-methylcyclohexyl)amino)-1-oxoisoindolin-2-yl)piperidine-2,6-dione], the IC50 is greater than 1000 nM.

With `N[C@H]1CC[C@H](N(CCCC2CCCOC2)c2cccc3c2CN(C2CCC(=O)NC2=O)C3=O)CC1` (some centres unmarked) [Compound 340, 3-(4-(((1r,4r)-4-aminocyclohexyl)(3-(tetrahydro-2H-pyran-3-yl)propyl)amino)-1-oxoisoindolin-2-yl)piperidine-2,6-dione, HCl], the IC50 is 100 to 1000 nM.

With `N[C@H]1CC[C@H](N(CCCC2CCCCO2)c2cccc3c2CN(C2CCC(=O)NC2=O)C3=O)CC1` (some centres unmarked) [Compound 341, 3-(4-(((1r,4r)-4-aminocyclohexyl)(3-(tetrahydro-2H-pyran-2-yl)propyl)amino)-1-oxoisoindolin-2-yl)piperidine-2,6-dione, HCl], the IC50 fell in the range of 100 to 1000 nM.

The same experiment, now with this note: Homo sapiens, MV4-11; IC50 class; MV-4-11 cells, RealTime-Glo after 44 hrs of treatment (TABLE 2); read-out: Cell viability classification.
As to `CCCCCN(C[C@H]1CC[C@@H](N)CC1)c1cccc2c1CN(C1CCC(=O)NC1=O)C2=O` (some centres unmarked) [Compound 91, 3-(4-((((1s,4s)-4-aminocyclohexyl)methyl)(pentyl)amino)-1-oxoisoindolin-2-yl)piperidine-2,6-dione, HCl], the IC50 is less than 100 nM.

On to `CCCCCN(C[C@H]1CC[C@H](N)CC1)c1cccc2c1CN(C1CCC(=O)NC1=O)C2=O` (some centres unmarked) [Compound 92, 3-(4-((((1r,4r)-4-aminocyclohexyl)methyl)(pentyl)amino)-1-oxoisoindolin-2-yl)piperidine-2,6-dione, HCl], for which the IC50 was less than 100 nM.

In the case of `NCCCCN(CCCCN)c1cccc2c1CN(C1CCC(=O)NC1=O)C2=O` (centres unmarked) [Compound 96, 3-(4-(bis(4-aminobutyl)amino)-1-oxoisoindolin-2-yl)piperidine-2,6-dione dihydrochloride], the IC50 fell in the range of 100 to 1000 nM.

On to `NCCCCN(CCCN)c1cccc2c1CN(C1CCC(=O)NC1=O)C2=O` (centres unmarked) [Compound 97, 3-(4-((4-aminobutyl)(3-aminopropyl)amino)-1-oxoisoindolin-2-yl)piperidine-2,6-dione dihydrochloride], for which the IC50 was greater than 1000 nM.

Turning to `NCCCCN(c1cccc2c1CN(C1CCC(=O)NC1=O)C2=O)[C@H]1CC[C@@H](N)CC1` (stereo partly drawn) [Compound 102, 3-(4-((4-aminobutyl)((1S,4S)-4-aminocyclohexyl)amino)-1-oxoisoindolin-2-yl)piperidine-2,6-dione dihydrochloride], the IC50 was in the range of 100 to 1000 nM.

Turning to `NCCCCN(c1cccc2c1CN(C1CCC(=O)NC1=O)C2=O)[C@H]1CC[C@H](N)CC1` (some centres unmarked) [Compound 103, 3-(4-((4-aminobutyl)((1r,4r)-4-aminocyclohexyl)amino)-1-oxoisoindolin-2-yl)piperidine-2,6-dione, 2HCl], the IC50 lay in the range of 100 to 1000 nM.

In the case of `NCCCCN(c1cccc2c1CN(C1CCC(=O)NC1=O)C2=O)[C@H]1CC[C@@H](CN)CC1` (some centres unmarked) [Compound 104, 3-(4-((4-aminobutyl)((1s,4s)-4-(aminomethyl)cyclohexyl)amino)-1-oxoisoindolin-2-yl)piperidine-2,6-dione dihydrochloride], the IC50 lay in the range of 100 to 1000 nM.

In the case of `NCCCCN(c1cccc2c1CN(C1CCC(=O)NC1=O)C2=O)[C@H]1CC[C@H](CN)CC1` (stereo partly drawn) [Compound 105, 3-(4-((4-aminobutyl)((1R,4R)-4-(aminomethyl)cyclohexyl)amino)-1-oxoisoindolin-2-yl)piperidine-2,6-dione, 2HCl], the IC50 lay in the range of 100 to 1000 nM.

For `NCCCCN(C[C@H]1CC[C@@H](N)CC1)c1cccc2c1CN(C1CCC(=O)NC1=O)C2=O` (some centres unmarked) [Compound 106, 3-(4-((4-aminobutyl)(((1s,4s)-4-aminocyclohexyl)methyl)amino)-1-oxoisoindolin-2-yl)piperidine-2,6-dione, 2HCl], the IC50 was 100 to 1000 nM.

In the case of `NCCCCN(C[C@H]1CC[C@H](N)CC1)c1cccc2c1CN(C1CCC(=O)NC1=O)C2=O` (some centres unmarked) [Compound 107, 3-(4-((4-aminobutyl)(((1r,4r)-4-aminocyclohexyl)methyl)amino)-1-oxoisoindolin-2-yl)piperidine-2,6-dione, HCl], the IC50 is 100 to 1000 nM.

Regarding `C[C@H]1CC[C@@H](N(CCCCN)c2cccc3c2CN(C2CCC(=O)NC2=O)C3=O)CC1` (some centres unmarked) [Compound 108, 3-(4-((4-aminobutyl)((1s,4s)-4-methylcyclohexyl)amino)-1-oxoisoindolin-2-yl)piperidine-2,6-dione hydrochloride], the IC50 was less than 100 nM.

As for `C[C@H]1CC[C@H](N(CCCCN)c2cccc3c2CN(C2CCC(=O)NC2=O)C3=O)CC1` (some centres unmarked) [Compound 109, 3-(4-((4-aminobutyl)((1r,4r)-4-methylcyclohexyl)amino)-1-oxoisoindolin-2-yl)piperidine-2,6-dione hydrochloride], the IC50 was in the range of 100 to 1000 nM.

As to `CCCCCN(CCC(C)(C)CN)c1cccc2c1CN(C1CCC(=O)NC1=O)C2=O` (centres unmarked) [Compound 123, 3-(4-((4-amino-3,3-dimethylbutyl)(pentyl)amino)-1-oxoisoindolin-2-yl)piperidine-2,6-dione hydrochloride], the IC50 was less than 100 nM.

For `CC(C)(CN)CCN(CCCCN)c1cccc2c1CN(C1CCC(=O)NC1=O)C2=O` (centres unmarked) [Compound 124, 3-(4-((4-amino-3,3-dimethylbutyl)(4-aminobutyl)amino)-1-oxoisoindolin-2-yl)piperidine-2,6-dione dihydrochloride], the IC50 was less than 100 nM.

For the compound `CC(C)(CCN)CCN(CCCCN)c1cccc2c1CN(C1CCC(=O)NC1=O)C2=O` (centres unmarked) [Compound 125, 3-(4-((5-amino-3,3-dimethylpentyl)(4-aminobutyl)amino)-1-oxoisoindolin-2-yl)piperidine-2,6-dione dihydrochloride], the IC50 fell in the range of 100 to 1000 nM.

Take `CC(C)(CN)CCCN(CCCCN)c1cccc2c1CN(C1CCC(=O)NC1=O)C2=O` (centres unmarked) [Compound 126, 3-(4-((5-amino-4,4-dimethylpentyl)(4-aminobutyl)amino)-1-oxoisoindolin-2-yl)piperidine-2,6-dione dihydrochloride]: the IC50 was less than 100 nM.

For the compound `CCCCCN(CCCCNC(=O)NC)c1cccc2c1CN(C1CCC(=O)NC1=O)C2=O` (centres unmarked) [Compound 143, 1-(4-((2-(2,6-dioxopiperidin-3-yl)-1-oxoisoindolin-4-yl)(pentyl)amino)butyl)-3-methylurea], the IC50 was in the range of 100 to 1000 nM.

As for `CCCCCN(CCCCNC(=O)CC(C)(C)C)c1cccc2c1CN(C1CCC(=O)NC1=O)C2=O` (centres unmarked) [Compound 150, N-(4-((2-(2,6-dioxopiperidin-3-yl)-1-oxoisoindolin-4-yl)(pentyl)amino)butyl)-3,3-dimethylbutanamide], the IC50 was greater than 1000 nM.

Turning to `CCCCCN(CCCCNC(=O)CC1CCCCC1)c1cccc2c1CN(C1CCC(=O)NC1=O)C2=O` (centres unmarked) [Compound 151, 2-cyclohexyl-N-(4-((2-(2,6-dioxopiperidin-3-yl)-1-oxoisoindolin-4-yl)(pentyl)amino)butyl)acetamide], the IC50 was greater than 1000 nM.

As to `CCCCCN(CCCCNC(=O)CNC)c1cccc2c1CN(C1CCC(=O)NC1=O)C2=O` (centres unmarked) [Compound 181, N-(4-((2-(2,6-dioxopiperidin-3-yl)-1-oxoisoindolin-4-yl)(pentyl)amino)butyl)-2-(methylamino)acetamide], the IC50 was in the range of 100 to 1000 nM.

Staying with this experiment, now noted: Homo sapiens, MV4-11; IC50 class; MV-4-11 cells, RealTime-Glo after 44 hrs of treatment (TABLE 3); read-out: Cell viability classification.
Turning to `C[C@H]1CC[C@@H](N(c2cccc3c2CN(C2CCC(=O)NC2=O)C3=O)[C@H]2CC[C@H](N)CC2)CC1` (stereo partly drawn) [Compound 331, 3-(4-(((1r,4R)-4-aminocyclohexyl)((1s,4S)-4-methylcyclohexyl)amino)-1-oxoisoindolin-2-yl)piperidine-2,6-dione], the IC50 was greater than 1000 nM.
